US20100256233A1, “SYSTEMS, METHODS AND COMPOSITIONS FOR REDUCTION OF INJURY FROM RADIATION EXPOSURE” (priority 2007, published 2010)

What was measured:
BALB/c mice = experiment: Lethality / survival after total-body irradiation (TBI); assay type: in vivo
Protocol: All studies were performed with prior approval and in accordance with institutional and national standards of animal care. The studies were approved by an Institutional Animal Care and Use Committee (“IACUC”) and were performed in an accredited AAALAC facility. Male BALB/c mice (Charles River Laboratories) 8 to 10 weeks old were allowed to acclimate for 1 week prior to the start of the study. Mice were maintained in environment-controlled (temperature and lighting) animal facilities, provided food and water ad libitum, and randomly assigned to experimental groups.
TBI was delivered using a 185 TBq (5000 Ci) ^137Cs source (Mark I, J. L. Shepherd and Associates, San Fernando, Calif.). Doses ranged from sublethal exposures of 5.5 Gy to lethal exposures of 6.5 Gy and a supralethal exposure of 7.0 Gy. The dose rate was approximately 1 Gy per minute.
Survival was measured in mice after TBI with and without HDACi. Groups of mice were exposed to 6.5 or 7.0 Gy alone or in combination with HDACi, as described above. Survival was defined as the time from irradiation to the time of euthanasia, which occurred when animals had lost 20% or more of their body weight.

[1] = tested on: acetylation of histone H3; experiment: Western blot of acetylated histones in bone marrow after HDACi administration (HDACi activity); assay type: in vivo, mouse; conditions: 10 h after first dose and 5 h after second dose, s.c., TSA 0.5 + 0.5 mg/kg, VPA 600 + 300 mg/kg
Protocol: […] or spleens were harvested at 10 h.
TSA is not selective and is expected to increase acetylation of histones non-specifically. FIG. 1 is a graph showing the acetylation of histone H3 relative to a beta-actin control in test samples. […] Bars indicate individual mice.

CC(/C=C/C(=O)NO)=C\[C@@H](C)C(=O)c1ccc(N(C)C)cc1 [TSA, trichostatin-A]
survival (BALB/c mice; 7 Gy TBI, TSA 0.5 mg/kg 24 h before TBI (FIG. 5)): increased survival
lethality (time for mice to lose 20% or more of their weight) (BALB/c mice; after TBI): reduce lethality in a dose-dependent manner
increase in acetylated form of histone H3 relative to the beta-actin control [1]: three to four-fold increase
